Data on 16 compounds can be found in US20090281142A1, “THIAZOLE DERIVATIVE” (ASTELLAS PHARMA INC., priority 2005, published 2009).

The target of assay [1] is T1, recombinant human liver GK (GST-hGK2) (Homo sapiens, UniProt P35557).
T1 construct: cloning of ORF (open reading frame) was carried out by the following procedure based on AK122876.1; made in house; host or cells: E. coli
T1 sequence (P35557 1-466 isoform P35557-2): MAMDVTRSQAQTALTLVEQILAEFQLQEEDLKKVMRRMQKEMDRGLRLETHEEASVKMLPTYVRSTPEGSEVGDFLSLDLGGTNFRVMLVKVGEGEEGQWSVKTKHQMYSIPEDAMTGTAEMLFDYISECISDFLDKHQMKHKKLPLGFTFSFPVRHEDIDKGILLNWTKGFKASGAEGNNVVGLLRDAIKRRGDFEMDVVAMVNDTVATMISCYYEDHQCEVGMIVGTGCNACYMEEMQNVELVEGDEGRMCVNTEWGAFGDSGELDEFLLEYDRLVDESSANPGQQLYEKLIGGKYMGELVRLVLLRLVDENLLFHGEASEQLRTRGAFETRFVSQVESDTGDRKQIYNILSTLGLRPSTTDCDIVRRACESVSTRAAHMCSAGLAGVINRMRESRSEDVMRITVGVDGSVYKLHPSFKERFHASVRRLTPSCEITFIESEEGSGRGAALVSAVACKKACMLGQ
Kind of assay: Measurement of GK activation. The note with it: 10 min; 10 μM test agent, 5 mM glucose, increase of absorbance (340 nm) in first 10 minutes relative to DMSO control. It is filed as biochemical. How it is done: Measurement of the GK activation by test agents was carried out in accordance with the method described in Science 301: 370-373, 2003, and by partially modifying this. The GK activity was measured as a change in absorbance based on the amount of NADPH which is converted from NADP (nicotinamide adenine dinucleotide phosphate) when glucose 6-phosphate produced by GK using glucose as the substrate is […] glucose-6-phosphate dehydrogenase.
Regarding the recombinant human liver GK (GST-hGK2) to be used in this assay, it was used by expressing as GST (glutathione S transferase)-fusion protein in E. coli and purifying by a Glutathione Sepharose column.
Regarding the sequence of glucokinase isoform 2, cloning of ORF (open reading frame) was carried out by the following procedure based on AK122876.1 (accession number). Using pME18S-FL3-Glucokinase isoform 2 as the template, PCR (polymerase chain reaction) was carried out using 5′-[…]-3′(SEQ ID NO:1) as the 5′ primer and 5′-[…]-3′ (SEQ ID NO:2) as the 3′ primer, and the PCR product was TA-cloned into pGEM-T easy vector. The sequence of this clone was confirmed by carrying out its sequencing. Thereafter, a fragment digested with EcoRI and XhoI was ligated to a vector pGEX-5X-1 digested in the same manner to prepare pGEX-human Glucokinase 2.
Regarding the enzyme reaction, the measurement was carried out at 27° C. using a 96 well flat bottom plate. As the enzyme mixed liquid, 25 mM HEPES pH 7.4; 25 mM KCl; 2 mM MgCl2; 1 mM ATP; 0.1% BSA; 1 mM DTT; 0.8 mM NADP; 2.5 U/ml glucose-6-phosphate dehydrogenase; GST-hGK2 (all in final concentration, however, the amount of GST-hGK2 was adjusted in such a manner that increase of absorbance of the DMSO control in 10 minutes (ΔOD) becomes about 0.12) was prepared. The enzyme mixed liquid was dispensed in 89 μl portions into the aforementioned plate, and a test agent dissolved in DMSO or the DMSO control was added thereto in 1 μl portions. Subsequently, glucose (5 mM in final concentration) was added as the substrate solution in 10 μl portions and the reaction was started at 27° C.
After commencement of the reaction, the absorbance was measured at a wavelength of 340 nm for 15 minutes at intervals of about 30 seconds, and the GK activation of each compound was calculated from the increase of absorbance during the first 10 minutes (ΔOD). Index of the GK activation of each test agent was calculated from the following formula as the GK activation (%).
GK activation (%)=[(ΔODTest)−(ΔODCont)]/(ΔODCont)×100
ΔODTest: ΔOD at 10 μM test agent
ΔODCont: ΔOD of DMSO control

The subject of another assay is ICR mice. Description: Action upon high blood glucose level after oral glucose loading in ICR mice. Format: in vivo. The note with it: 3 mg/kg oral, fasted ICR mice, AUC of blood glucose from administration until 2 hours after oral glucose loading (2 g/kg) vs solvent control. How it is done:
After overnight fasting, body weights of ICR mice (N=5) were measured. Each test compound was dissolved in Cremophor solvent (Cremophor:DMSO:Water 5:5:90, v/v/v) to a concentration of 0.3 mg/ml. To each mouse was orally administered 10 ml/kg of the agent liquid (corresponds to the test compound of 3 mg/kg) or 10 ml/kg of the solvent control. Just before the administration of the test compound, about 60 μl of blood was collected from the venous plexus of the fundus of the eye using a capillary. After 30 minutes of the administration of the test compound, 200 mg/ml of glucose aqueous solution was orally administered at a dose of 10 ml/kg (corresponds to 2 g/kg). Just before the administration of glucose, about 60 μl of blood was collected from the venous plexus of the fundus of the eye using a capillary. Blood was collected in the same manner after 0.5, 1 and 2 hours of the glucose administration. Blood plasma was separated from the thus collected blood to measure the blood glucose level. AUC of the blood glucose level after the administration of the test compound until 2 hours after the glucose loading was compared with AUC of the solvent control group within the same period of time.

The subject of the next assay is C57BL6 mice. Kind of assay: Hypoglycemic action in C57BL6 mice. It is filed as in vivo. The note with it: 10 mg/kg oral, 1 hour after administration, freely ingesting C57BL6 mice. How it is done:
Body weights of freely ingesting C57BL6 mice (N=5) were measured. Each test compound was dissolved in Cremophor (registered trademark) solvent (Cremophor:DMSO:Water 5:5:90, v/v/v) to a concentration of 1 mg/ml. To each mouse was orally administered 10 ml/kg of the agent liquid (corresponds to the test compound of 10 mg/kg) or 10 ml/kg of the solvent control. Just before the administration of the test compound, about 60 μl of blood was collected from the venous plexus of the fundus of the eye using a capillary. Blood was collected in the same manner 1 or 4 hours after the administration of the test compound. Blood plasma was separated from the thus collected blood to measure the blood glucose level. The blood glucose level after 1 or 4 hours of the administration of the test compound was compared with the blood glucose level of the solvent control group at the same period of time.

Each structure is given as a SMILES string.

`O=C(Nc1nc(C(O)CCO)cs1)/C(=C/C1CCCC1)c1ccc(S(=O)(=O)C2CC2)cc1` (stereo not drawn) [Ex 71]: the activation at 10 µM in assay [1] is 240%. For the same compound, the “Blood glucose lowering ratio (%)” value in the assay on ICR mice is listed as 22%.
As for `CS(=O)(=O)c1ccc(/C(=C\C2CCCC2)C(=O)Nc2nc(C(O)CO)cs2)cc1` (stereo not drawn) [Ex 6, (2E)-3-cyclopentyl-N-[4-(1,2-dihydroxyethyl)-1,3-thiazol-2-yl]-2-[4-(methylsulfonyl)phenyl]acrylamide], in assay [1], the activation at 10 µM came to 299%. In addition, the “blood glucose level lowered in comparison with the solvent control group” value with C57BL6 mice worked out at 22%.
As for `CS(=O)(=O)c1ccc([C@@H](CC2CCCC2)C(=O)Nc2nc(C(O)CO)cs2)cc1` (stereo partly drawn) [Ex 5, (2R)-3-cyclopentyl-N-[4-(1,2-dihydroxyethyl)-1,3-thiazol-2-yl]-2-[4-(methylsulfonyl)phenyl]propanamide], in assay [1], the activation at 10 µM amounted to 263%.
With `O=C(Nc1nc(C(O)CO)cs1)C(CC1CCCC1)c1ccc(S(=O)(=O)C(F)(F)F)cc1` (stereo not drawn) [Ex 7, 3-cyclopentyl-N-[4-(1,2-dihydroxyethyl)-1,3-thiazol-2-yl]-2-{4-[(trifluoromethyl)sulfonyl]phenyl}propanamide], in assay [1], the activation at 10 µM was 214%.
As to `O=C(Nc1nc([C@H](O)CO)cs1)/C(=C/C1CCCC1)c1ccc(S(=O)(=O)C2CC2)cc1` [Ex 13, (2E)-3-cyclopentyl-2-[4-(cyclopropylsulfonyl)phenyl]-N-{4-[(1S)-1,2-dihydroxyethyl]-1,3-thiazol-2-yl}acrylamide], the activation at 10 µM in assay [1] turned out to be 293%. In addition, the “Blood glucose lowering ratio (%)” value in the assay on ICR mice is 19%.
Consider `CC(=O)OCC(O)c1csc(NC(=O)/C(=C/C2CCCC2)c2ccc(S(C)(=O)=O)cc2)n1` (stereo not drawn) [Ex 44], for which the activation at 10 µM in assay [1] was found to be 283%.
With `CC(O)(CO)c1csc(NC(=O)/C(=C/C2CCCC2)c2ccc(S(=O)(=O)C3CC3)cc2)n1` (stereo not drawn) [Ex 63, (2E)-3-cyclopentyl-2-[4-(cyclopropylsulfonyl)phenyl]-N-[4-(1,2-dihydroxy-1-methylethyl)-1,3-thiazol-2-yl]acrylamide], in assay [1], the activation at 10 µM is 241%. In addition, in the assay with ICR mice, the “Blood glucose lowering ratio (%)” value was determined as 35%.
For `O=C(Nc1nc(CC(CO)CO)cs1)/C(=C/C1CCCC1)c1ccc(S(=O)(=O)C2CC2)cc1` [Ex 70, (2E)-3-cyclopentyl-2-[4-(cyclopropylsulfonyl)phenyl]-N-{4-[3-hydroxy-2-(hydroxymethyl)propyl]-1,3-thiazol-2-yl} acrylamide], in assay [1], the activation at 10 µM is 244%.
With `CC(O)(CO)c1csc(NC(=O)[C@H](CC2CCCC2)c2ccc(S(=O)(=O)C3CC3)cc2)n1` (stereo partly drawn) [Ex 74, (2R)-3-cyclopentyl-2-[4-(cyclopropylsulfonyl)phenyl]-N-[4-(1,2-dihydroxy-1-methylethyl)-1,3-thiazol-2-yl]propanamide], in assay [1], the activation at 10 µM amounted to 260%. The “Blood glucose lowering ratio (%)” value in the assay on ICR mice was 23%.
Take `CC1(C)OCC(c2csc(NC(=O)/C(=C/C3CCCC3)c3ccc(S(C)(=O)=O)c(Cl)c3)n2)O1` (stereo not drawn) [Ex 10, (2E)-2-[3-chloro-4-(methylsulfonyl)phenyl]-3-cyclopentyl-N-[4-(2,2-dimethyl-1,3-dioxolan-4-yl)-1,3-thiazol-2-yl]acrylamide]: the activation at 10 µM in assay [1] was determined as 294%.
Still for that read-out and setting: with `CC1(C)OCC(c2csc(NC(=O)/C(=C/C3CCCC3)c3ccc(S(C)(=O)=O)cc3)n2)O1` (stereo not drawn) [Ex 38, (2E)-3-cyclopentyl-N-[4-(2,2-dimethyl-1,3-dioxolan-4-yl)-1,3-thiazol-2-yl]-2-[4-(methylsulfonyl)phenyl]acrylamide] the figure was 239%.
On the same count and under the same terms, with `CS(=O)(=O)c1ccc([C@@H](CC2CCCC2)C(=O)Nc2nc(C(O)CO)c(Cl)s2)cc1` (stereo partly drawn) [Ex 49] the figure was 273%.
As for `O=C(Nc1nc(C(=O)CO)cs1)/C(=C/C1CCCC1)c1ccc(S(=O)(=O)C2CC2)cc1` [Ex 77, (2E)-3-cyclopentyl-2-[4-(cyclopropylsulfonyl)phenyl]-N-(4-glycoloyl-1,3-thiazol-2-yl)acrylamide], in assay [1], the activation at 10 µM is 217%. In addition, in the assay with ICR mice, the “Blood glucose lowering ratio (%)” value came out at 18%.
On the same counts, the results for `O=C(Nc1nc(C(O)CO)cs1)/C(=C/C1CCCC1)c1ccc(S(=O)(=O)C2CCC2)cc1` (stereo not drawn) [Ex 62, (2E)-2-[4-(cyclobutylsulfonyl)phenyl]-3-cyclopentyl-N-[4-(1,2-dihydroxyethyl)-1,3-thiazol-2-yl]acrylamide] are 227% and 19%.
Take `CC(O)(CO)c1csc(NC(=O)/C(=C/C2CCCC2)c2ccc(S(=O)(=O)C3CCC3)cc2)n1` (stereo not drawn) [Ex 73, (2E)-2-[4-(cyclobutylsulfonyl)phenyl]-3-cyclopentyl-N-[4-(1,2-dihydroxy-1-methylethyl)-1,3-thiazol-2-yl]acrylamide]: the activation at 10 µM in assay [1] turned out to be 235%. Besides, the “Blood glucose lowering ratio (%)” value in the assay with ICR mice is on record as 27%.
For `O=C(Nc1nc(C(O)CO)cs1)[C@H](CC1CCCC1)c1ccc(S(=O)(=O)C2CC2)cc1` (stereo partly drawn) [Ex 66], in assay [1], the activation at 10 µM was 267%.
